The subject of this data set is CCRIS mutagenicity, Ames/micronucleus/aberration tests. Put plainly: CCRIS mutagenicity studies.
Setting [1] is: Test System: AMES SALMONELLA TYPHIMURIUM, Strain/Indicator: TA100, Metabolic Activation: NONE, Method: STANDARD PLATE.
The mark [2] stands for this setting: Test System: AMES SALMONELLA TYPHIMURIUM, Strain/Indicator: TA98, Metabolic Activation: NONE, Method: STANDARD PLATE.
Setting [3] is: Test System: AMES SALMONELLA TYPHIMURIUM, Strain/Indicator: TA98, Metabolic Activation: RAT, LIVER, S-9, AROCLOR 1254, Method: STANDARD PLATE.
Setting [4] is: Test System: AMES SALMONELLA TYPHIMURIUM, Strain/Indicator: TA100, Metabolic Activation: RAT, LIVER, S-9, AROCLOR 1254, Method: STANDARD PLATE.
Setting [5] is: Test System: AMES SALMONELLA TYPHIMURIUM, Strain/Indicator: TA98, Metabolic Activation: NONE, Method: PREINCUBATION
Setting [6] is: Test System: AMES SALMONELLA TYPHIMURIUM, Strain/Indicator: TA100, Metabolic Activation: NONE, Method: PREINCUBATION

Active and inactive are the calls of the source. How the calls were made is not given here.

With `Nc1ccc(N=Nc2cccc(N)c2N)cc1`, the mutagenic call is “active; positive” (Test System: AMES SALMONELLA TYPHIMURIUM, Strain/Indicator: TA98, Method: PREINCUBATION) and “active; positive” (Test System: AMES SALMONELLA TYPHIMURIUM, Strain/Indicator: TA100, Method: PREINCUBATION).
On to `OC1CC=Cc2cccnc21` (stereo not given), for which the mutagenic call by setting is: under setting [1], “inactive; negative”; (Test System: AMES SALMONELLA TYPHIMURIUM, Strain/Indicator: TA100, Metabolic Activation: RAT, LIVER, S-9, AROCLOR 1254 (10 OR 20%), Method: STANDARD PLATE) “inactive; negative”.
Take `CCCCNNCCCC`: the mutagenic call was “active; positive” (Test System: AMES SALMONELLA TYPHIMURIUM, Strain/Indicator: TA100, Metabolic Activation: NONE, Method: PREINCUBATION (11 HR GROWTH PERIOD FOR BACTERIA)); “inactive; negative” (Test System: AMES SALMONELLA TYPHIMURIUM, Strain/Indicator: TA100, Metabolic Activation: RAT, LIVER, S-9, PCB, Method: PREINCUBATION (11 HR GROWTH PERIOD FOR BACTERIA)); “active; positive” (Test System: AMES SALMONELLA TYPHIMURIUM, Strain/Indicator: TA102, Metabolic Activation: NONE, Method: PREINCUBATION (5 OR 7 HR GROWTH PERIOD FOR BACTERIA)); “active; positive” (Test System: AMES SALMONELLA TYPHIMURIUM, Strain/Indicator: TA102, Metabolic Activation: RAT, LIVER, S-9, PCB, Method: PREINCUBATION (5 OR 7 HR GROWTH PERIOD FOR BACTERIA)).
`O=c1oc2c([N+](=O)[O-])cccc2c2ccccc12`: the mutagenic call runs as follows: (Test System: AMES SALMONELLA TYPHIMURIUM, Strain/Indicator: TA98(1,8-DNP6), Metabolic Activation: NONE, Method: MICROSUSPENSION) “active; positive”; (Test System: AMES SALMONELLA TYPHIMURIUM, Strain/Indicator: TA98(1,8-DNP6), Metabolic Activation: NONE, Method: STANDARD PLATE) “active; positive”; (Test System: AMES SALMONELLA TYPHIMURIUM, Strain/Indicator: TA98(NR), Metabolic Activation: NONE, Method: MICROSUSPENSION) “active; positive”; (Test System: AMES SALMONELLA TYPHIMURIUM, Strain/Indicator: TA98(NR), Metabolic Activation: NONE, Method: STANDARD PLATE) “inactive; negative”; (Test System: AMES SALMONELLA TYPHIMURIUM, Strain/Indicator: TA98(NR), Metabolic Activation: RAT, LIVER, S-9, AROCLOR 1254, Method: STANDARD PLATE) “active; positive”; (Test System: AMES SALMONELLA TYPHIMURIUM, Strain/Indicator: TA98, Metabolic Activation: NONE, Method: MICROSUSPENSION) “active; positive”. The mutagenic call by setting is: under setting [2], “active; positive”; (Test System: AMES SALMONELLA TYPHIMURIUM, Strain/Indicator: TA98, Metabolic Activation: RAT, LIVER, S-9, AROCLOR 1254, Method: MICROSUSPENSION) “active; positive”; under setting [3], “active; positive”.
`O=Cc1cccc(-c2ccccc2)c1`: the mutagenic call was “inactive; negative” under setting [2], “inactive; negative” under setting [3], “inactive; negative” under setting [1] and “inactive; negative” under setting [4].
As for `CCCCC[N+](=O)[O-]`, the mutagenic call is “inactive; negative” under setting [5]; “inactive; negative” (Test System: AMES SALMONELLA TYPHIMURIUM, Strain/Indicator: TA98, Metabolic Activation: RAT, LIVER, S-9, AROCLOR, Method: PREINCUBATION); “inactive; negative” under setting [6]; “inactive; negative” (Test System: AMES SALMONELLA TYPHIMURIUM, Strain/Indicator: TA100, Metabolic Activation: RAT, LIVER, S-9, AROCLOR, Method: PREINCUBATION); “inactive; negative” (Test System: AMES SALMONELLA TYPHIMURIUM, Strain/Indicator: TA102, Metabolic Activation: NONE, Method: PREINCUBATION); “inactive; negative” (Test System: AMES SALMONELLA TYPHIMURIUM, Strain/Indicator: TA102, Metabolic Activation: RAT, LIVER, S-9, AROCLOR, Method: PREINCUBATION). In addition, where the note is “Test System: UDS RAT HEPATOCYTES, Strain/Indicator: THY INCORP, Metabolic Activation: NONE”, the mutagenic call is “inactive; negative”.
Regarding `Cc1cc2c(c3ccc4ccccc4c13)[C@@H]1O[C@@H]1[C@H](O)[C@H]2O`, the mutagenic call under setting [6] is “active; positive”.
On to `CCCCNC(=O)C=Cc1ccc([N+](=O)[O-])o1`, for which the mutagenic call under setting [5] was “active; positive”.
As to `COc1ccc2oc([N+](=O)[O-])cc2c1N(CCCl)CCCl`, the mutagenic call is, setting by setting: (Test System: AMES SALMONELLA TYPHIMURIUM, Strain/Indicator: TA100(NR), Metabolic Activation: NONE, Method: STANDARD PLATE) “active; positive”; (Test System: AMES SALMONELLA TYPHIMURIUM, Strain/Indicator: TA100(NR), Metabolic Activation: RAT, LIVER, S-9, AROCLOR 1254, Method: STANDARD PLATE) “active; positive”; under setting [1], “active; positive”; under setting [4], “active; positive”.
Take `OC1C2(Cl)C3(Cl)C4(Cl)C(Cl)(Cl)C5(Cl)C3(Cl)C1(Cl)C5(Cl)C24Cl` (stereo not given): the mutagenic call is, setting by setting: (End Point: IN VITRO CHROMOSOMAL ABERRATIONS, Test System: CHINESE HAMSTER OVARY CELLS, Metabolic Activation: NONE) “inactive; negative”; (Test System: AMES SALMONELLA TYPHIMURIUM, Strain/Indicator: TA98, Metabolic Activation: HAMSTER, LIVER, S-9, AROCLOR 1254 (10%), Method: PREINCUBATION) “inactive; negative”; under setting [5], “inactive; negative”; (Test System: AMES SALMONELLA TYPHIMURIUM, Strain/Indicator: TA98, Metabolic Activation: RAT, LIVER, S-9, AROCLOR 1254 (10%), Method: PREINCUBATION) “inactive; negative”; (Test System: AMES SALMONELLA TYPHIMURIUM, Strain/Indicator: TA100, Metabolic Activation: HAMSTER, LIVER, S-9, AROCLOR 1254 (10%), Method: PREINCUBATION) “inactive; negative”; under setting [6], “inactive; negative”. For the same molecule, the mutagenic call (Test System: AMES SALMONELLA TYPHIMURIUM, Strain/Indicator: TA100, Metabolic Activation: RAT, LIVER, S-9, AROCLOR 1254 (10%), Method: PREINCUBATION) is “inactive; negative”; the mutagenic call (Test System: AMES SALMONELLA TYPHIMURIUM, Strain/Indicator: TA1535, Metabolic Activation: HAMSTER, LIVER, S-9, AROCLOR 1254 (10%), Method: PREINCUBATION) was “inactive; negative”; the mutagenic call (Test System: AMES SALMONELLA TYPHIMURIUM, Strain/Indicator: TA1535, Metabolic Activation: NONE, Method: PREINCUBATION) was “inactive; negative”; the mutagenic call (Test System: AMES SALMONELLA TYPHIMURIUM, Strain/Indicator: TA1535, Metabolic Activation: RAT, LIVER, S-9, AROCLOR 1254 (10%), Method: PREINCUBATION) is “inactive; negative”; the mutagenic call (Test System: AMES SALMONELLA TYPHIMURIUM, Strain/Indicator: TA1537, Metabolic Activation: HAMSTER, LIVER, S-9, AROCLOR 1254 (10%), Method: PREINCUBATION) was “inactive; negative”; the mutagenic call (Test System: AMES SALMONELLA TYPHIMURIUM, Strain/Indicator: TA1537, Metabolic Activation: NONE, Method: PREINCUBATION) is “inactive; negative”. In addition, the mutagenic call (Test System: AMES SALMONELLA TYPHIMURIUM, Strain/Indicator: TA1537, Metabolic Activation: RAT, LIVER, S-9, AROCLOR 1254 (10%), Method: PREINCUBATION) was “inactive; negative”.
Consider `c1ccc2c(c1)-c1ccc3ccccc3c1C1NC21` (stereo not given), for which the mutagenic call runs as follows: (Test System: AMES SALMONELLA TYPHIMURIUM, Strain/Indicator: TA98, Metabolic Activation: NONE, Method: PREINCUBATION (KCL-CONTAINING OR KCL-FREE MEDIA)) “active; positive”; (Test System: AMES SALMONELLA TYPHIMURIUM, Strain/Indicator: TA100, Metabolic Activation: NONE, Method: PREINCUBATION (KCL-CONTAINING MEDIUM)) “active; positive”; (Test System: AMES SALMONELLA TYPHIMURIUM, Strain/Indicator: TA100, Metabolic Activation: NONE, Method: PREINCUBATION (KCL-FREE MEDIUM)) “active; positive”.

The record behind these values is PubChem BioAssay AID1259407 (Chemical Carcinogenesis Research Information System (CCRIS), 2018).
